Test results published in publication PMC9964242 (Vaccines, 2023).
Converted amounts (≈) assume the structure as drawn. “And” between values parts separate entries of the source, which are not always exact repeats. Identical values can stand only once. Like-named read-outs stand apart in the source and are kept apart here.

Assays:
[1] = tested on: MDCK cells
[2] = tested on: influenza A/Egypt/NRC098/2019(H1N1)
[3] = in vitro; conditions: dog
[4] = tested on: influenza A/Egypt/NRC098/2019(H1N1); test: microbe, parasite or virus in culture; conditions: H1N1, MDCK
[5] = tested on: Zika virus; conditions: cited from earlier work
[6] = tested on: A/ShanTou/169/06 (H1N1); conditions: cited from earlier work
[7] = tested on: MDCK cells; conditions: cited from earlier work
[8] = tested on: influenza A/chicken/Egypt/N12640A/2016 (H5N1); test: microbe, parasite or virus in culture; format: cell-based, influenza A/H5N1 virus; conditions: for IC50: Influenza A virus, H5N1, MDCK, read-out: IC50 (half-maximal inhibitory concentration)
[9] = tested on: seasonal influenza A/H1N1 virus; format: cell-based
[10] = tested on: seasonal influenza A/H1N1 virus; format: cell-based; conditions: for Viral inhibition / inactivation of viral infectivity through direct viricidal action: 10–100 µg/mL
[11] = tested on: seasonal influenza A/H1N1 virus; format: cell-based; remark: listed apart in the source
[12] = read-out: IC50 (half-maximal inhibitory concentration)

O=c1cc(-c2ccccc2)oc2cc(O)ccc12 [7-Hydroxy flavone]
CC50 (half-maximal cytotoxic concentration) ([1]; dog): 5830 µg/mL (≈ 24500 µM)
Antiviral activity against A/H1N1 (in words) [2]: poor antiviral activity
SI (selectivity index = CC50/IC50) [2]: 16.194
CC50 [3]: 5830 µg/mL (≈ 24500 µM)
IC50 [4, 12]: 360 µg/mL (≈ 1510 µM)

O=C1c2cccc(O)c2C(=O)c2c(O)cc(CO)cc21 [Aloe emodin]
CC50 (half-maximal cytotoxic concentration) ([1]; dog): 2280 µg/mL (≈ 8440 µM)
SI (selectivity index = CC50/IC50) [2]: 3.127
CC50 [3]: 2280 µg/mL (≈ 8440 µM)
IC50 [4, 12]: 729 µg/mL (≈ 2700 µM)

OC[C@H]1O[C@@H](Oc2ccc(O)cc2)[C@H](O)[C@@H](O)[C@@H]1O [Arbutin]
SI (selectivity index = CC50/IC50) [2]: >13.09
CC50 [3]: > 10000 µg/mL
IC50 [4, 12]: 764 µg/mL (≈ 2810 µM)

Cc1cc(O)c2c(c1)C(=O)c1cccc(O)c1C2=O [Chrysophanic acid]
CC50 (half-maximal cytotoxic concentration) ([1]; dog): 46.1 µg/mL (≈ 181 µM)
IC50 relative to CC50 (in words) [2]: IC50 > CC50
CC50 [3]: 46.1 µg/mL (≈ 181 µM)

O=C[C@H](O)[C@@H](O)[C@@H](O)[C@H](O)C(=O)O [D-Galacturonic acid, Galacturonic acid]
CC50 (half-maximal cytotoxic concentration) ([1]; dog): 9610 µg/mL (≈ 49500 µM)
IC50 relative to CC50 (in words) [2]: IC50 > CC50
CC50 [3]: 9610 µg/mL (≈ 49500 µM)

O=C[C@H](O)[C@@H](O)[C@H](O)[C@H](O)C(=O)O [D-Glucuronic acid, Glucuronic acid]
CC50 (half-maximal cytotoxic concentration) ([1]; dog): 10260 µg/mL (≈ 52800 µM)
IC50 relative to CC50 (in words) [2]: IC50 > CC50
CC50 [3]: 10300 µg/mL (≈ 52800 µM)

OC[C@@H](O)[C@@H](O)[C@H](O)[C@@H](O)CO [D-sorbitol]
SI (selectivity index = CC50/IC50) [2]: >3.215
CC50 [3]: > 10000 µg/mL
IC50 [4, 12]: 3110 µg/mL (≈ 17100 µM)

C[C@@H]1CC[C@@]2(OC1)O[C@H]1[C@@H](O)[C@H]3[C@@H]4CC[C@H]5C[C@@H](O[C@@H]6O[C@H](CO)[C@H](O[C@@H]7O[C@H](CO)[C@@H](O)[C@H](O[C@@H]8OC[C@@H](O)[C@H](O)[C@H]8O)[C@H]7O[C@@H]7O[C@H](CO)[C@H](O)[C@H](O[C@@H]8O[C@H](CO)[C@@H](O)[C@H](O)[C@H]8O)[C@H]7O)[C@H](O)[C@H]6O)[C@H](O)C[C@]5(C)[C@H]4CC[C@]3(C)[C@H]1[C@@H]2C [Digitonin]
CC50 (half-maximal cytotoxic concentration) ([1]; dog): 442 µg/mL (≈ 360 µM)
Antiviral activity against A/H1N1 (in words) [2]: moderate antiviral activity
SI (selectivity index = CC50/IC50) [2]: 20.56
IC50 [5]: 7.91 µM
CC50 [3]: 442 µg/mL (≈ 360 µM)
IC50 [4]: 21.6 µg/mL (≈ 17.5 µM)
IC50 [4, 12]: 21.5 µg/mL (≈ 17.5 µM)

C[C@]12CC[C@@H]3c4ccc(O)cc4CC[C@H]3[C@@H]1CC[C@@H]2O [Estradiol, estradiol, reference compound]
CC50 [3]: > 5000 µg/mL
IC50 [4]: 7.1 µg/mL (≈ 26.1 µM)

O=C1CC(c2ccccc2)Oc2ccccc21 (centres unmarked) [Flavanone]
CC50 (half-maximal cytotoxic concentration) [1]: 450 µg/mL (≈ 2010 µM)
IC50 relative to CC50 (in words) [2]: IC50 > CC50

O=c1c(O[C@@H]2O[C@H](CO)[C@@H](O)[C@H](O)[C@H]2O)c(-c2ccc(O)c(O)c2)oc2cc(O)cc(O)c12 [Isoquercitrin]
CC50 (half-maximal cytotoxic concentration) ([1]; dog): 710 µg/mL (≈ 1530 µM)
Antiviral activity against A/H1N1 (in words) [2]: poor antiviral potential
SI (selectivity index = CC50/IC50) [2]: 4.25
CC50 [3]: 710 µg/mL (≈ 1530 µM)
IC50 [4, 12]: 167 µg/mL (≈ 360 µM)

C[C@@H]1O[C@@H](Oc2cc(O)c3c(=O)c(O[C@@H]4O[C@@H](C)[C@H](O)[C@@H](O)[C@H]4O)c(-c4ccc(O)cc4)oc3c2)[C@H](O)[C@H](O)[C@H]1O [Kaempferitrin]
Antiviral activity against A/H1N1 (in words) [2]: moderate antiviral activity
SI (selectivity index = CC50/IC50) [2]: >209.20
CC50 [3]: > 10000 µg/mL
IC50 [4, 12]: 47.8 µg/mL (≈ 82.6 µM)

C=C(C)[C@@H]1CC[C@]2(C)CC[C@]3(C)[C@H](CC[C@@H]4[C@@]5(C)CC[C@H](O)C(C)(C)[C@@H]5CC[C@]43C)[C@@H]12 [Lupeol]
CC50 (half-maximal cytotoxic concentration) ([1]; dog): 560 µg/mL (≈ 1310 µM)
SI (selectivity index = CC50/IC50) [2]: 5.98
CC50 [3]: 560 µg/mL (≈ 1310 µM)
IC50 [4]: 93.7 µg/mL (≈ 220 µM)
IC50 [4, 12]: 93.6 µg/mL (≈ 219 µM)

C[C@@H]1O[C@@H](O[C@H]2[C@H](Oc3cc(O)c4c(c3)O[C@H](c3ccc(O)cc3)CC4=O)O[C@H](CO)[C@@H](O)[C@@H]2O)[C@H](O)[C@H](O)[C@H]1O [Naringin]
Antiviral activity against A/H1N1 (in words) [2]: moderate antiviral activity
SI (selectivity index = CC50/IC50) [2]: >485.43
CC50 [3]: > 10000 µg/mL
IC50 [4]: 20.7 µg/mL (≈ 35.6 µM)
IC50 [4, 12]: 20.6 µg/mL (≈ 35.5 µM)

O=C(O)/C=C/c1ccccc1O [O-Coumaric acid]
CC50 (half-maximal cytotoxic concentration) ([1]; dog): 9172 µg/mL (≈ 55900 µM)
IC50 relative to CC50 (in words) [2]: IC50 > CC50
CC50 [3]: 9170 µg/mL (≈ 55900 µM)

O=C1C[C@@H](c2ccccc2)Oc2cc(O)cc(O)c21 [Pinocembrin]
Antiviral activity against A/H1N1 (in words) [2]: poor anti-H1N1 activity
CC50 [3]: > 10000 µg/mL
IC50 [4, 12]: > 10000 µg/mL

COc1cc(C2Oc3cc([C@H]4Oc5cc(O)cc(O)c5C(=O)[C@@H]4O)ccc3OC2CO)ccc1O (some centres unmarked) [Silybin]
CC50 (half-maximal cytotoxic concentration) ([1]; dog): 9480 µg/mL (≈ 19700 µM)
Antiviral activity against A/H1N1 (in words) [2]: poor anti-influenza potential
IC50 relative to CC50 (in words) [2]: IC50 > CC50
EC50 [6]: 70.8 ± 8.11 µM
CC50 [3]: 9480 µg/mL (≈ 19700 µM)
CC50 [7]: > 400 µM

COc1cc(C=O)ccc1O [Vanillin]
CC50 (half-maximal cytotoxic concentration) ([1]; dog): 242 µg/mL (≈ 1590 µM)
IC50 relative to CC50 (in words) [2]: IC50 > CC50
CC50 [3]: 242 µg/mL (≈ 1590 µM)

CC(=O)N[C@H]1[C@H]([C@H](O)[C@H](O)CO)OC(C(=O)O)=C[C@@H]1N=C(N)N [Zanamivir, reference compound]
SI (selectivity index = CC50/IC50) [8]: >37,736
IC50 [8]: 0.265 µg/mL (≈ 0.797 µM)
SI (selectivity index = CC50/IC50) [2]: >12,626
CC50 [3]: > 10000 µg/mL
IC50 [4, 12]: 0.792 µg/mL (≈ 2.38 µM)

CC[C@H](CC[C@@H](C)[C@H]1CC[C@H]2[C@@H]3CC=C4C[C@@H](O[C@@H]5O[C@H](CO)[C@@H](O)[C@H](O)[C@H]5O)CC[C@]4(C)[C@H]3CC[C@]12C)C(C)C [β-sitosterol-O-glucoside]
IC50 [8]: 0.613 µg/mL (≈ 1.06 µM)
Plaque reduction %, Viral Replication [9]: 28.7% and 37.7% and 52.8%
Plaque reduction %, Viricidal [10]: 83.6% and 93.3% and 97.1%
Viral inhibition / inactivation of viral infectivity through direct viricidal action [10]: up to 90%
Plaque reduction %, Viral Adsorption [11]: 35.8% and 48.3% and 56.9%
CC50 (half-maximal cytotoxic concentration) ([1]; dog): 1750 µg/mL (≈ 3030 µM)
SI (selectivity index = CC50/IC50) [2]: 2434
CC50 [3]: 1750 µg/mL (≈ 3030 µM)
IC50 [4, 12]: 0.719 µg/mL (≈ 1.25 µM)

CC[C@H](CC[C@@H](C)[C@H]1CC[C@H]2[C@@H]3CC=C4C[C@@H](O)CC[C@]4(C)[C@H]3CC[C@]12C)C(C)C [β-sitosterol]
IC50 [8]: 0.295 µg/mL (≈ 0.711 µM)
Plaque reduction %, Viral Replication [9]: 31.8% and 41.2% and 52.9%
Plaque reduction %, Viricidal [10]: 84% and 98.5% and 99%
Viral inhibition / inactivation of viral infectivity through direct viricidal action [10]: up to 90%
Plaque reduction %, Viral Adsorption [11]: 28% and 37.5% and 52.5%
CC50 (half-maximal cytotoxic concentration) ([1]; dog): 9900 µg/mL (≈ 23900 µM)
SI (selectivity index = CC50/IC50) [2]: 10,154
CC50 [3]: 9900 µg/mL (≈ 23900 µM)
IC50 [4, 12]: 0.975 µg/mL (≈ 2.35 µM)
